This is an account of results in patent publication US20080234332A1, “RAF KINASE INHIBITORS CONTAINING A ZINC BINDING MOIETY” (priority 2007, published 2008).

Common to all, as to type: biochemical
The target of one test is T1, VEGFR2 (Homo sapiens, UniProt P35968).
T1 construct: GST (N); His6 (N); Thrombin cleavage site (N); purchased Cell Signaling Technologies; host or cells: baculovirus expression system
The experiment in a line: HTScan VEGFR2 Kinase Assay (DELFIA). As to conditions: 200 μM ATP; read-out: VEGFR2 IC50 grade. The protocol:
The ability of compounds to inhibit VEGFR2 kinase activity was assayed using HTScan™ VEGFR2 Kinase Assay Kits (Cell Signaling Technologies, Danvers, Mass.). […] The protein was purified by one-step affinity chromatography using glutathione-agarose.
Immediately transfer enzyme from −80° C. to ice. Allowed enzyme to thaw on ice. […] Returned immediately to ice. […] Incubated reaction plate at room temperature for 30 minutes. […] Added 100 μl/well primary antibody. Incubated at room temperature for 60 minutes. […] Added 100 μl/well diluted antibody. Incubated at room temperature for 30 minutes. […] Incubated at room temperature for 5 minutes.
(§1) The following TABLE B lists compounds representative of the invention and their activity in HDAC, VEGFR2 and RAF assays.

In another test the target is cKit (Homo sapiens, UniProt P10721). The experiment in a line: cKit kinase inhibition (Table B). As to conditions: read-out: cKit IC50 grade.
cKit, sequence (P10721 26-976): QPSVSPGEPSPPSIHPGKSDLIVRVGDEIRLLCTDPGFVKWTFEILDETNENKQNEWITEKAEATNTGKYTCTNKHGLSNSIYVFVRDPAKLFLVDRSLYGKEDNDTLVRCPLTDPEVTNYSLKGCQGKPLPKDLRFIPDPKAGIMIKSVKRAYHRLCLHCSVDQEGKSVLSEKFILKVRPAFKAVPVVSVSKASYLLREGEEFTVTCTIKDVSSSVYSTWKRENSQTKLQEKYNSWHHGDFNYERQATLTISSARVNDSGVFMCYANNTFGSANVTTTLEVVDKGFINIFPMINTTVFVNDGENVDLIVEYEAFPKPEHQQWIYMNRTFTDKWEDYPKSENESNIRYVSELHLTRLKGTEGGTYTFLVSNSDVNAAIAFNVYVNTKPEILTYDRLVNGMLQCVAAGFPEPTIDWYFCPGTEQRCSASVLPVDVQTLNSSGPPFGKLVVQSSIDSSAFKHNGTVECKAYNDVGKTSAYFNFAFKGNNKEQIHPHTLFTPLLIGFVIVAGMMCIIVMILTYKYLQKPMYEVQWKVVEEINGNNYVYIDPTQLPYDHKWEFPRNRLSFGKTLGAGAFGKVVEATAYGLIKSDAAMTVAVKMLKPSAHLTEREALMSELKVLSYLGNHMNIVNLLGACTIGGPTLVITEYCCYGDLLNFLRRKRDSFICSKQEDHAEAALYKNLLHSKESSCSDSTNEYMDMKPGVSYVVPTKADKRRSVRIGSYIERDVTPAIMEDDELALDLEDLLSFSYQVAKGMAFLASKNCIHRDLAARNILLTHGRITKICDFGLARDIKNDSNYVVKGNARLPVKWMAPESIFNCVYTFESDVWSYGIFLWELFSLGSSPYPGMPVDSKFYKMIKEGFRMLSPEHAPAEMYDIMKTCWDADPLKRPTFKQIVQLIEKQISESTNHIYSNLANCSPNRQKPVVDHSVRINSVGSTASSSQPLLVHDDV
The next test has as its system HDAC. The experiment in a line: HDAC fluorimetric assay kit (HeLa nuclear extract). To be noted: read-out: HDAC IC50 grade. The method, then:
HDAC inhibitors were screened using an HDAC fluorimetric assay kit (AK-500, Biomol, Plymouth Meeting, Pa.). […] Each assay was setup as follows: Defrosted all kit components and kept on ice until use. Diluted HeLa nuclear extract 1:29 in assay buffer (50 mM Tris/Cl, pH 8.0, 137 mM NaCl, 2.7 mM KCl, 1 mM MgCl2). Prepared dilutions of Trichostatin A (TSA, positive control) and tested compounds in assay buffer (5× of final concentration). Diluted Fluor de LysTM Substrate in assay buffer to 100 uM (50 fold=2× final). Diluted Fluor de LysTM developer concentrate 20-fold (e.g. 50 μl plus 950 μl assay buffer) in cold assay buffer. Second, diluted the 0.2 mM Trichostatin A 100-fold in the 1× Developer (e.g. 10 μl in 1 ml; final Trichostatin A concentration in the 1× Developer=2 μM; final concentration after addition to HDAC/Substrate reaction=1 μM). Added assay buffer, diluted trichostatin A or test inhibitor to appropriate wells of the microtiter plate. Added diluted HeLa extract or other HDAC sample to all wells except for negative controls. Allowed diluted Fluor de LysTM Substrate and the samples in the microtiter plate to equilibrate to assay temperature (e.g. 25 or 37° C. Initiated HDAC reactions by adding diluted substrate (25 μl) to each well and mixing thoroughly. Allowed HDAC reactions to proceed for 1 hour and then stopped them by addition of Fluor de LysTM Developer (50 μl). Incubated plate at room temperature (25° C.) for 10-15 min. Read samples in a microtiter-plate reading fluorimeter capable of excitation at a wavelength in the range 350-380 nm and detection of emitted light in the range 440-460 nm.
as §1

Another test concerns the target C-Raf (Homo sapiens, UniProt P04049). Put plainly: Raf kinase assay (C-Raf kit, MEK-1 substrate, dot blot). As to conditions: 250 μM ATP; read-out: C-Raf IC50 grade. The method, then: (§2) The Raf kinase assay was performed by following the protocol of Raf kinase assay kit (B-Raf, Upstate, catalog# 17-359; C-Raf, Upstate, catalog# 17-360) with modifications. Briefly, assay buffer, ATP, substrate and Raf kinase were mixed in a 96 well assay plate. The final kinase assay mixture contained 20 mM MOPS, pH7.2, 25 mM β-glycerol phosphate, 5 mM EGTA, 1 mM sodium orthovanadate, 1 mM DTT, 250 μM ATP and 37.5 mM magnesium chloride, 0.1 μg/well of Raf kinase, and 1 μg/well of MEK-1 substrate protein. Assay samples were incubated for 30 min at room temperature. The kinase reaction was stopped by adding EDTA, pH8 to a final concentration of 25 mM. A 10 μl of the reaction sample was spotted onto nitrocellulose filter and dot blot was performed by adding 1 μg/ml of anti-phospho-MEK-1 antibody in the blocking solution (Licor Bioscience, catalogue # 927-40000). The nitrocellulose filter was subsequently incubated with secondary IRDye 800CW goat anti-rabbit antibody (Licor Bioscience, catalogue # 926-32211) before reading the signal on an Odyssey imager (Licor Bioscience).
as §1

Another test concerns the target PDGFRβ (Homo sapiens, UniProt P09619). The experiment in a line: PDGFRβ kinase inhibition (Table B). To be noted: read-out: PDGFRβ IC50 grade.
The target of a further test is T2, B-Raf (Homo sapiens, UniProt P15056).
T2 construct: purchased Upstate 17-359
T2 sequence (P15056 whole entry): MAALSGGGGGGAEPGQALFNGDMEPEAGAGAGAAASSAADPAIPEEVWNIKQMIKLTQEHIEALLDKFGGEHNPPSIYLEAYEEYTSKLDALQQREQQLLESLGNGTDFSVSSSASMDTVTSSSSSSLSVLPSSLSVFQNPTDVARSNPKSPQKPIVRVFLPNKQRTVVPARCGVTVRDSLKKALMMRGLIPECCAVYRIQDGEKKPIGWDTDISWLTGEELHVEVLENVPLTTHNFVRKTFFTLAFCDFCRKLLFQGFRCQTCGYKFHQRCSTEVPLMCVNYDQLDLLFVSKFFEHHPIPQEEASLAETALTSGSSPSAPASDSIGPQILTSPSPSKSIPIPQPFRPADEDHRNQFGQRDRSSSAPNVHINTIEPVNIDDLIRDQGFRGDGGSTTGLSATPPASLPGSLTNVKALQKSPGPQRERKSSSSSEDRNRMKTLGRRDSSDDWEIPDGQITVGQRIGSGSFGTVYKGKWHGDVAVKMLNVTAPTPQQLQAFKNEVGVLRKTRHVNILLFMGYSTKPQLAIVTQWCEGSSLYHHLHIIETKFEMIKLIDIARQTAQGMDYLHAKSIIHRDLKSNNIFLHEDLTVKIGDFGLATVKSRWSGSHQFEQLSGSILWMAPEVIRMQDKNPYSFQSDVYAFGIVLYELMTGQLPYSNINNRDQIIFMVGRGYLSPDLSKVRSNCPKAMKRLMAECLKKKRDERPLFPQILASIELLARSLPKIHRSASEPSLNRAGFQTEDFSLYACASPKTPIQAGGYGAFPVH
Put plainly: Raf kinase assay (B-Raf kit, MEK-1 substrate, dot blot). To be noted: 250 μM ATP; read-out: B-Raf IC50 grade. The protocol: as §2, §1

C-Raf, sequence (P04049 whole entry Y340D/Y341D, form open): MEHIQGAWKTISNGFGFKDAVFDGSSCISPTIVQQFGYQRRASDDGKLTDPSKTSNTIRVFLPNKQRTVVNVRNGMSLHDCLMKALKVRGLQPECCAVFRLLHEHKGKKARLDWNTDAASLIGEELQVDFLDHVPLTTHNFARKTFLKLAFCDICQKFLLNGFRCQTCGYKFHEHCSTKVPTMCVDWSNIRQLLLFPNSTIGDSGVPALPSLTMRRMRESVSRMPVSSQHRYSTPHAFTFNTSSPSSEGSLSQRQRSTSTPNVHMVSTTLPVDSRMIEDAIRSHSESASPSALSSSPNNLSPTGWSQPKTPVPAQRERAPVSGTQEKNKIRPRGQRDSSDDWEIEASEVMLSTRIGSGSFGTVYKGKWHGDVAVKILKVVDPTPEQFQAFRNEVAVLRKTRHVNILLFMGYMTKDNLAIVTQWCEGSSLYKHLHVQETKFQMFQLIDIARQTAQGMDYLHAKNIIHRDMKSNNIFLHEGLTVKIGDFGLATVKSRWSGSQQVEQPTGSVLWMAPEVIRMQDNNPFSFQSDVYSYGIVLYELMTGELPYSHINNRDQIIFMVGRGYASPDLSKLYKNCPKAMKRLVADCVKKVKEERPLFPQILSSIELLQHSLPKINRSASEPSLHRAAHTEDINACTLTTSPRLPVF
T1 sequence (P35968 805-1356): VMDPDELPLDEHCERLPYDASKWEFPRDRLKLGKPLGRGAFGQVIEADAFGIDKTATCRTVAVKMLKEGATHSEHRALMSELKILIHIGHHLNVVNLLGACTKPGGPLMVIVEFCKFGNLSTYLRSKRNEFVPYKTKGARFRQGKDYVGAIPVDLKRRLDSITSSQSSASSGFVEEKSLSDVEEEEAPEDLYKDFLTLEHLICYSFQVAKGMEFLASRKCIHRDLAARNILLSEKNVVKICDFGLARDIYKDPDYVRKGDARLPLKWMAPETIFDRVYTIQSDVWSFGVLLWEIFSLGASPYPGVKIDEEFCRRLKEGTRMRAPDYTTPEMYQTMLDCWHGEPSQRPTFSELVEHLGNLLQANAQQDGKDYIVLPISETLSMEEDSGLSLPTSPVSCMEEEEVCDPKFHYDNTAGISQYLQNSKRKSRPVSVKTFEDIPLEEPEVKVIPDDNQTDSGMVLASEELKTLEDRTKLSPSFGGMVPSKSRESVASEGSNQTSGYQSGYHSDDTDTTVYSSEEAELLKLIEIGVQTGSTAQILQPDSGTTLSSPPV
PDGFRβ, sequence (P09619 33-1106, species assumed): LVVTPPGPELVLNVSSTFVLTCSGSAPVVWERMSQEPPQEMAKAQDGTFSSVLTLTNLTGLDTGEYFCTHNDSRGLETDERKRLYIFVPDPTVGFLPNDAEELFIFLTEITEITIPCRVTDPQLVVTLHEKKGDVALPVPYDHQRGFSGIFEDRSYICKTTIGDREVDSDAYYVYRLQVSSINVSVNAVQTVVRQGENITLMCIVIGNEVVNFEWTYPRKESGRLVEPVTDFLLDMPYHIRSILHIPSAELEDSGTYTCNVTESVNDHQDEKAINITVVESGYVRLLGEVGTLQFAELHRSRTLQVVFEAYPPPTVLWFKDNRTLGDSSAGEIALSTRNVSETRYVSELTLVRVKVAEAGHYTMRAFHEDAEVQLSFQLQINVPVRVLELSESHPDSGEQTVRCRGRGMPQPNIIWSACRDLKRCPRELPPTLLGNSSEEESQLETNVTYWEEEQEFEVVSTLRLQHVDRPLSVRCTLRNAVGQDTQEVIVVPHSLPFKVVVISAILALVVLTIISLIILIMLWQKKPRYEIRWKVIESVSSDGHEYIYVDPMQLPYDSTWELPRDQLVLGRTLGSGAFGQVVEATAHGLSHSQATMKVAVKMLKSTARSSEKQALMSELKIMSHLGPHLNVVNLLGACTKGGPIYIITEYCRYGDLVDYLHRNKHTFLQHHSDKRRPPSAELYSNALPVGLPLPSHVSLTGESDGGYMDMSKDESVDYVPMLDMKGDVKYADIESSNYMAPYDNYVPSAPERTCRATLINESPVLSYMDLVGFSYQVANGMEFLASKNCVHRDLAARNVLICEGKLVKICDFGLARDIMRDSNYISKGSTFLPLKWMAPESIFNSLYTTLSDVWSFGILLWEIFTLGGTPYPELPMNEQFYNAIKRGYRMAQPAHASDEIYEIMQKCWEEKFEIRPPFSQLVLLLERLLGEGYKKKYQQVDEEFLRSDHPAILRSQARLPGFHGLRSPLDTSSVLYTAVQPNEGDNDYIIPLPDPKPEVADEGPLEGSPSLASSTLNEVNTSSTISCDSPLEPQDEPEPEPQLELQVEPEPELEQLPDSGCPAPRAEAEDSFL

Regarding `O=C(CCCCCNC(=O)c1cc(Oc2ccc(NC(=O)Nc3ccc(Cl)c(C(F)(F)F)c3)cc2)ccn1)NO` [Compound 5, 4-(4-(3-(4-Chloro-3-(trifluoromethyl)phenyl)ureido)phenoxy)-N-(6-(hydroxyamino)-6-oxohexyl)picolinamide], the 50% inhibitory concentration (IC50) – broadly, the midpoint of a concentration-inhibition curve – at VEGFR2 is below 0.1 µM; at cKit, below 0.1 µM; in the test with HDAC, 0.1 to 1 µM; at C-Raf, 1 to 10 µM; on PDGFRβ, 0.1 to 1 µM; at B-Raf, 1 to 10 µM.
